{
  "source": "paper PMC8805583",
  "about": "“Discovery of Herbacetin as a Novel SGK1 Inhibitor to Alleviate Myocardial Hypertrophy” (Advanced Science, 2021)",
  "key": {"[1]": {"test_system": "SGK1(S422D)-transfected primary cardiomyocytes", "assay": "S422D SGK1-transfected primary cardiac myocytes (western blot, confocal microscopy)", "assay_type": "cell-based, rat", "procedure": "Figure 5 HBT blocks induction of cardiac hypertrophic responses and the SGK1/FoxO1 signaling pathway. A) Cardiomyocytes were treated with 50 µmol PE in the presence or absence of Ext.R (50 µg mL^−1) or HBT (50 µmol) for 48 h. Cardiomyocytes were identified by cytoskeleton staining through the binding of phalloidin to F‐actin (green). Images were acquired using an ImageXpress Micro Confocal High‐Content Imaging System (Molecular Devices), with a 40 × PlanFluor objective. Relative cell area was quantified by the analysis module of […] High‐Content Image and Analysis Software (Molecular Devices). Control group (Ctrl), PE group, PE plus Ext.R group (Ext.R), and PE plus HBT group (HBT), n = 3 independent experiments, Scale bar, 50 µm. B,C) Quantification of relative ANP and BNP in cardiomyocytes treated with Ext.R or HBT, n = 3 independent experiments. D) Western blot analysis of related proteins in PE‐treated cardiomyocytes, n = 3–4 independent experiments. E) Co‐IP and western blot analysis of SGK1‐FoxO1 interaction in cardiomyocytes, n = 3 independent experiments. F) Western blot analysis of related proteins in nontransfected (control adenovirus) and in ^S422DSGK1‐transfected primary cardiac myocytes treated with DMSO as solvent control (^S422DSGK1‐transf. group) or HBT (50 µmol, ^S422DSGK1‐transf.+HBT group), n = 3 independent experiments. G) Confocal microscopy of nuclear translocation of FoxO1 in nontransfected (control adenovirus), ^S422DSGK1‐transfected cardiomyocytes treated with HBT (50 µmol) or DMSO as solvent control. Green signal represents FoxO1 and white arrow represents the translocation of FoxO1 to nuclei, n = 3 independent experiments, Scale bar, 25 µm. All data were analyzed using one‐way ANOVA and data were expressed as means ± SD, ##p < 0.01 versus Ctrl group, *p < 0.05, **p < 0.01 versus PE group or ^S422DSGK1‐transf. group.\nIn the present study, we studied HBT's effect on protein binding between SGK1 and FoxO1 by coimmunoprecipitation (Figure 5E). […] Nevertheless, as previously reported,^[ [30] ^] […] Supportively, after transfection with the SGK1(S422D) plasmid, we consistently detected increased cytoplasmic signal of FoxO1 compared to nontransfected cells in which the majority of FoxO1 signal was distributed in the nucleus.\nSGK1 mutant plasmids and adenovirus were constructed by Vigene Bioscience. All the transfection assays were performed using Lipofectamine 2000 according to the manufacturer's protocol. Adenovirus (Ad‐^S422DSGK1) was diluted in DMEM and administered at a dose of 100 MOI in primary cardiomyocytes."}, "control mice": {"test_system": "control mice", "assay": "HBT in control mice (safety)", "assay_type": "in vivo", "procedure": "Finally, we evaluate the safety and pharmacokinetics of HBT to ensure its druggability. […] Single dose administration of HBT at 40 mg kg^−1 was uptaken rapidly with a maximal plasma concentration of ≈6.73 ng mL^−1 after 10 min (Figure S14A, Supporting Information).\nFigure S12. The mice were divided into two groups: Sham, Sham mice treated with HBT (Ctrl + HBT). (A) Schedule of animal treatments. (B) Heart weight/Body weight ratio (HW/BW) was detected in Ctrl and Ctrl + HBT group. (C-D) Echocardiography assessments were performed in the two groups. n=10-12. (E) HE in different groups of mice. n=4, Scale bar=50 μm. (F) The phosphorylation level of SGK1 in myocardial tissues in the two groups (Ctrl, Ctrl + HBT), n=4. Data were analyzed using unpaired two-tailed t test and data were expressed as means ± SD, ns: no significant.\n(1 picture or pasted object on this page, not shown here)\nFigure S13. Serum level of biochemical markers in mice of Ctrl and Ctrl + HBT groups. Data were analyzed using unpaired two-tailed t test and data were expressed as means ± SD, ns: no […]\nFigure S14. Plasma concentration (A) and in vivo distribution (B) of HBT after single oral administration with dosage of 40mg/kg rat weight (n=5-6). The quantitation of HBT was performed by LC-MS/MS analysis. […]"}},
  "data": [
    {"smiles": "O=c1c(O)c(-c2ccc(O)cc2)oc2c(O)c(O)cc(O)c12", "note": "[HBT, herbacetin]", "values": [
      {"measurement": "expression of STIM1", "setting": "[1]; HBT 50 µmol", "result": "moderately inhibited"},
      {"measurement": "FoxO1 phosphorylation", "setting": "[1]; SGK1(S422D) expression, HBT 50 µmol", "result": "reverse the alternation"},
      {"measurement": "FoxO1 subcellular localization", "setting": "[1]; SGK1(S422D) transfection, HBT 50 µmol, confocal microscopy", "result": "restrain FoxO1 in the nucleus"},
      {"measurement": "level of Orai1", "setting": "[1]; constitutively expressed SGK1, HBT 50 µmol", "result": "significantly inhibited"},
      {"measurement": "phosphorylation of NDRG1", "setting": "[1]; continuously-activated form of SGK1, HBT 50 μmol", "result": "reduce the phosphorylation"},
      {"measurement": "heart weight, cardiac function, cardiac histopathology", "setting": "control mice; control mice", "result": "no adverse effect"},
      {"measurement": "serum level of regular biomarkers (ALT, AST, TCHO)", "setting": "control mice; control versus HBT-treated mice", "result": "no significant difference"}
    ]}
  ]
}
